Source: patent US20240425464A1, “Substituted Monohydrazides as Potent Antifungal Agents” (University of Kentucky Research Foundation, priority 2023, published 2024)
Values after ≈ are worked out from the molar mass of the structure shown. Read-outs that look alike come from different tables or passages of the source.

What was measured:
Assay in all cases: MIC determination by in vitro antifungal assay
Format in all cases: cell-based
[1] = system: Aspergillus flavus ATCC MYA-3631 (O); conditions: strain O = A. flavus ATCC MYA-3631
Description: (§1) 10 mg/mL stock solutions of compounds 1a-9j were prepared in dimethyl sulfoxide (DMSO) and were stored at −20° C. in the dark. The antifungal agent amphotericin B (AmB) was purchased from VWR (Radnor PA, USA). AmB was dissolved in DMSO at a final concentration of 5 mg/mL and was stored at −20° C., protected from light. Candida albicans American Type Culture Collection (ATCC) 10231 (strain A), C. albicans ATCC 64124 (B), and C. albicans ATCC MYA-2876 (C) were obtained from Utah State University. C. albicans ATCC 90819 (D), C. albicans ATCC MYA-2310 (E), C. albicans ATCC MYA-1237 (F), C. albicans ATCC MYA-1003 (G), Candida glabrata ATCC 2001 (H), Candida krusei ATCC 6258 (I), Candida parapsilosis ATCC 22019 (J), Cryptococcus neoformans ATCC MYA-895 (M), Aspergillus terreus ATCC MYA-3633 (N), and Aspergillus flavus ATCC MYA-3631 (0) were obtained from the American Type Culture Collection (ATCC; Manassas, VA, USA). Aspergillus nidulans ATCC 38163 (P) was obtained from University of Kentucky. Clinically derived Aspergillus fumigatus NRRL 163 (Q), A. fumigatus NRRL 5109 (R), and A. fumigatus NRRL 6113 (S) were obtained from Northern Regional Research Laboratory (NRRL). Candida auris 384 (K), C. auris 390 (L), and fungal strains 381-400 (including 10 C. auris (AR Bank #381-390), 3 Candida duobushaemulonii (AR Bank #391, AR Bank #392, and AR Bank #394), 2 Candida haemulonii (AR Bank #393 and AR Bank #395), 1 Kodameae ohmeri (AR Bank #396), 1 C. krusei (AR Bank #397), 1 Candida lusitaniae (AR Bank #398), and 2 Saccharomyces cerevisiae strains (AR Bank #399 and AR Bank #400)) were part of a larger fungal library from the AR Bank maintained by the Centers for Disease Control and Prevention (CDC; Atlanta, GA, USA). Filamentous fungi and yeasts were cultivated at 35° C. in RPMI 1640 medium (with L-glutamine, without sodium bicarbonate, Sigma-Aldrich, St. Louis, MO) buffered to a pH of 7.0 with 0.165 M morpholinepropanesulfonic acid (MOPS) buffer (Sigma-Aldrich). For cytotoxicity assays, HepG2 and the mouse macrophage cell line J774A.1 were obtained from University of Kentucky. The human embryonic kidney cell line, HEK-293, was bought from the ATCC. Mammalian cells were grown in Dulbecco's Modified Eagle's Medium (DMEM) (from VWR) with 10% fetal bovine serum (FBS) (from VWR) and 1% Pen/Strep (from ATCC). Cell lines were cultured at 37° C. with 5% CO2 and passaged by trypsinization with 0.05% trypsin: 0.53 mM EDTA (from Sigma-Aldrich).
(§2) The MIC values of compounds 1a-9j against yeast cells (strains A-P and 381-400) were determined in 96-well plates as described in the CLSI documents M27-A3 and M38-A2 with minor modifications.^2 A single colony of freshly prepared yeast cells was used to inoculate 5 mL of yeast extract peptone dextrose (YPD) broth prior to incubation overnight with shaking at 200 rpm at 35° C. From the actively growing yeast culture, 100 µL were then transferred to 900 μL of RPMI 1640 medium and re-adjusted to achieve OD600 of 0.12 (˜1×10^6 CFU/mL). The cell suspension was further diluted to achieve 1:100 in RPMI 1640 medium. 100 μL of cells were added to the wells of a 96-well microtiter plates that contained 100 µL of the compound solution to obtain concentrations of 0.06-31.3 μg/mL of compounds 1a-9j or AmB prior to incubation for 48 h at 35° C.
(§3) Finally, the activity of these monohydrazides was explored against […] non-Candida strains: Cryptococcus neoformans ATCC MYA-895 (M), Aspergillus terreus ATCC MYA-3633 (N), Aspergillus flavus ATCC MYA-3631 (O), Aspergillus nidulans ATCC 38163 (P), Aspergillus fumigatus NRRL 163 (Q), A. fumigatus NRRL 5109 (R), and A. fumigatus NRRL 6113 (S) (Tables 1A and 1B). The double dilution method was used with concentrations ranging from 0.06 to 31.3 j·tg mL^−1 for monohydrazides 1a-9j, and the commercially available positive antifungal control amphotericin B (AmB).

[2] = system: Aspergillus terreus ATCC MYA-3633 (N); conditions: strain N = A. terreus ATCC MYA-3633
Description: as §1, §2, §3

[3] = system: Aspergillus nidulans ATCC 38163 (P)
Description: as §1, §2, §3

[4] = system: Cryptococcus neoformans ATCC MYA-895 (M)
Description: as §1, §2, §3

[5] = strain P = A. nidulans ATCC 38163
[6] = strain M = C. neoformans ATCC MYA-895
[7] = Aspergillus flavus, read-out: MIC
[8] = Aspergillus terreus, read-out: MIC
[9] = Aspergillus nidulans, ATCC38163, strain P = A. nidulans ATCC 38163, read-out: MIC
[10] = Cryptococcus neoformans, strain M = C. neoformans ATCC MYA-895, read-out: MIC

Structure (SMILES) | MIC [1] [μg/mL^−1] | MIC [2] [μg/mL^−1] | MIC [3, 5] [μg/mL^−1] | MIC [4, 6] [μg/mL^−1] | MIC [1, 7] [µg/mL] | MIC [2, 8] [µg/mL] | MIC [3, 9] [µg/mL] | MIC [4, 10] [µg/mL] | MIC ([4]; against strain M) [j·tg mL^−1]
O=C(NNc1ccc(Cl)cc1)c1ccc(F)cc1F [Compound 1e] | >31.3 | 31.3 | 31.3 | 1.95 |  |  |  |  | 
O=C(NNc1ccc(Cl)cc1)c1nc(F)ccc1F [Compound 8e] | >31.3 | >31.3 | 7.8 | 1.95 |  |  |  |  | 
COc1ccc(NNC(=O)c2ccc(Br)cn2)cc1 [Compound 4f] |  |  |  |  | > 31.3 | 7.8 (≈ 24.2 µM) | 15.6 (≈ 48.4 µM) | 1.95 (≈ 6.05 µM) | 
O=C(NNc1ccc(Cl)cc1)c1ccccn1 [Compound 2e] | 31.3 | 3.9 | 0.49 | 0.49 |  |  |  |  | 
O=C(NNc1cc(Cl)cc(Cl)c1)c1ccc(F)cc1F [Compound 1j] |  |  |  |  | > 31.3 | > 31.3 | 15.6 (≈ 49.2 µM) | 7.8 (≈ 24.6 µM) | 
O=C(NNc1cccc(Cl)c1)c1ccccn1 [Compound 2b] | >31.3 | 0.98 | 0.24 | 0.12 |  |  |  |  | 
COc1cccc(NNC(=O)c2ccc(Br)cn2)c1 [Compound 4c] |  |  |  |  | > 31.3 | 3.9 (≈ 12.1 µM) | 1.95 (≈ 6.05 µM) | 0.49 (≈ 1.52 µM) | 
COc1cccc(NNC(=O)c2ncc(F)cc2F)c1 [Compound 7c] |  |  |  |  | > 31.3 | 31.3 (≈ 112 µM) | 15.6 (≈ 55.9 µM) | 15.6 (≈ 55.9 µM) | 
COc1cccc(NNC(=O)c2cnccn2)c1 [Compound 9c] |  |  |  |  | > 31.3 | 1.95 (≈ 7.98 µM) | 1.95 (≈ 7.98 µM) | 0.49 (≈ 2.01 µM) | 
O=C(NNc1cccc(F)c1)c1ccccn1 [Compound 2a] | 7.8 | 1.95 | 3.9 | 0.12 |  |  |  |  | 
COc1ccc(NNC(=O)c2ncc(F)cc2F)cc1 [Compound 7f] |  |  |  |  | > 31.3 | 31.3 (≈ 112 µM) | 1.95 (≈ 6.98 µM) | 1.95 (≈ 6.98 µM) | 
C[C@@H]1[C@H](O)[C@@H](C)/C=C/C=C/C=C/C=C/C=C/C=C/C=C/[C@H](O[C@@H]2O[C@H](C)[C@@H](O)[C@H](N)[C@@H]2O)C[C@@H]2O[C@](O)(C[C@@H](O)C[C@@H](O)[C@H](O)CC[C@@H](O)C[C@@H](O)CC(=O)O[C@H]1C)C[C@H](O)[C@H]2C(=O)O [AmB, amphotericin B, reference compound] | 31.3 | 3.9 | 15.6 | 7.8 |  |  |  |  | 
O=C(NNc1cc(F)cc(F)c1)c1ccc(F)cc1F [Compound 1i] |  |  |  |  | > 31.3 | > 31.3 | 7.8 (≈ 27.4 µM) | 0.49 (≈ 1.72 µM) | 0.49
O=C(NNc1ccc(F)cc1)c1ccc(F)cn1 [Compound 3d] | 15.6 | 3.9 | 0.98 | 0.98 |  |  |  |  | 
COc1ccc(NNC(=O)c2nc(F)ccc2F)cc1 [Compound 8f] |  |  |  |  | > 31.3 | 31.3 (≈ 112 µM) | 1.95 (≈ 6.98 µM) | 0.98 (≈ 3.51 µM) | 
O=C(NNc1ccc(F)cc1F)c1cccc(F)n1 [Compound 5g] |  |  |  |  | 31.3 (≈ 117 µM) | 3.9 (≈ 14.6 µM) | 0.49 (≈ 1.83 µM) | 0.49 (≈ 1.83 µM) | 
COc1ccc(NNC(=O)c2ccccn2)cc1 [Compound 2f] |  |  |  |  | > 31.3 | 31.3 (≈ 129 µM) | 0.49 (≈ 2.01 µM) | 0.49 (≈ 2.01 µM) | 

Structure (SMILES) | MIC [1] [μg/mL^−1] | MIC [2] [μg/mL^−1] | MIC [3, 5] [μg/mL^−1] | MIC [4, 6] [μg/mL^−1] | MIC [1, 7] [µg/mL] | MIC [2, 8] [µg/mL] | MIC [3, 9] [µg/mL] | MIC [4, 10] [µg/mL] | MIC ([4]; against strain M) [j·tg mL^−1]
O=C(NNc1cccc(F)c1)c1ncc(F)cc1F [Compound 7a] | >31.3 | 3.9 | 0.98 | ≤0.06 |  |  |  |  | 
O=C(NNc1cccc(F)c1)c1cccc(Br)n1 [Compound 6a] | 31.3 | 3.9 | 1.95 | ≤0.06 |  |  |  |  | 
O=C(NNc1cccc(F)c1)c1ccc(F)cn1 [Compound 3a] | 7.8 | 1.95 | 0.98 | ≤0.06 |  |  |  |  | 
COc1ccc(NNC(=O)c2ccc(F)cc2F)cc1 [Compound 1f] |  |  |  |  | > 31.3 | 31.3 (≈ 112 µM) | 1.95 (≈ 7.01 µM) | 0.98 (≈ 3.52 µM) | 
COc1cccc(NNC(=O)c2ccc(F)cn2)c1 [Compound 3c] | >31.3 | 3.9 | 1.95 | 0.24 |  |  |  |  | 
O=C(NNc1cc(F)cc(F)c1)c1ccccn1 [Compound 2i] |  |  |  |  | 1.95 (≈ 7.82 µM) | 0.98 (≈ 3.93 µM) | 0.49 (≈ 1.97 µM) | 0.24 (≈ 0.963 µM) | 
O=C(NNc1ccc(F)cc1F)c1cnccn1 [Compound 9g] |  |  |  |  | 7.8 (≈ 31.2 µM) | 0.98 (≈ 3.92 µM) | 0.49 (≈ 1.96 µM) | 0.24 (≈ 0.959 µM) | 
COc1cccc(NNC(=O)c2ccccn2)c1 [Compound 2c] | >31.3 | 3.9 | 1.95 | 0.24 |  |  |  |  | 
O=C(NNc1cccc(F)c1)c1cccc(F)n1 [Compound 5a] | >31.3 | 1.95 | 0.98 | ≤0.06 |  |  |  |  | 
COc1cccc(NNC(=O)c2ccc(F)cc2F)c1 [Compound 1c] |  |  |  |  | > 31.3 | 3.9 (≈ 14 µM) | 3.9 (≈ 14 µM) | 0.49 (≈ 1.76 µM) | 
O=C(NNc1ccc(F)cc1F)c1ccc(Br)cn1 [Compound 4g] |  |  |  |  | > 31.3 | 3.9 (≈ 11.9 µM) | 3.9 (≈ 11.9 µM) | 1.95 (≈ 5.94 µM) | 
COc1ccc(NNC(=O)c2ccc(F)cn2)cc1 [Compound 3f] | >31.3 | 31.3 | 1.95 | ≤0.06 |  |  |  |  | 
O=C(NNc1cc(F)ccc1F)c1ccccn1 [Compound 2h] |  |  |  |  | 3.9 (≈ 15.6 µM) | 0.98 (≈ 3.93 µM) | 0.49 (≈ 1.97 µM) | 0.49 (≈ 1.97 µM) | 
O=C(NNc1ccc(Cl)cc1)c1ccc(F)cn1 [Compound 3e] | >31.3 | >31.3 | 15.6 | 3.9 |  |  |  |  | 
O=C(NNc1ccc(F)cc1F)c1ccccn1 [Compound 2g] |  |  |  |  | 15.6 (≈ 62.6 µM) | 0.98 (≈ 3.93 µM) | 0.49 (≈ 1.97 µM) | 0.24 (≈ 0.963 µM) | 
O=C(NNc1cc(F)ccc1F)c1ccc(F)cc1F [Compound 1h] |  |  |  |  | 15.6 (≈ 54.9 µM) | > 31.3 | 3.9 (≈ 13.7 µM) | 0.98 (≈ 3.45 µM) | 0.98
O=C(NNc1cccc(F)c1)c1ccc(F)cc1F [Compound 1a] | >31.3 | 3.9 | 3.9 | 1.95 |  |  |  |  | 
